Source: patent US20180099931A1 (AbbVie S.à.r.l., priority 2016, published 2018)
Where two headings read alike, the source gives them in different places.

Target: T1, F508delCFTR (Homo sapiens, UniProt P13569, DEL508-508)
T1 construct: expressed in transfected cells; host or cells: CFBE41o- human lung-derived epithelial cells (CFBE4lo-F508delCFTR-HRP), doxycycline-inducible
Assay: Cell Surface Expression-Horse Radish Peroxidase (CSE-HRP) Assay;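 on Maximum % activity (with co-corrector): co-corrector and positive control are both the same reference corrector at 2 µM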;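 on Maximum % activity (without co-corrector): percent of the 2 µM on-plate positive control corrector response above DMSO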
Assay type: cell-based
Details: for Emax: read-out: Maximum % activity (without co-corrector)

[1] = test compound without co-corrector, maximum at any tested concentration, normalized to on-plate positive control
[2] = test compound without co-corrector, read-out: EC50 (without co-corrector)
[3] = with co-corrector (2 μM of 3-[(2R,4R)-4-({[1-(2,2-difluoro-1,3-benzodioxol-5-yl)cyclopropyl]carbonyl}amino)-7-methoxy-3,4-dihydro-2H-chromen-2-yl]benzoic acid), maximum at any tested concentration, normalized to on-plate positive control
[4] = with co-corrector (2 μM of 3-[(2R,4R)-4-({[1-(2,2-difluoro-1,3-benzodioxol-5-yl)cyclopropyl]carbonyl}amino)-7-methoxy-3,4-dihydro-2H-chromen-2-yl]benzoic acid), read-out: EC50 (with co-corrector)
[5] = with co-corrector (2 μM), maximum at any tested concentration, normalized to on-plate positive control
[6] = without co-corrector, maximum at any tested concentration, normalized to on-plate positive control
[7] = CSE-HRP, test compound without co-corrector, read-out: EC50 (without co-corrector)
[8] = CSE-HRP, with co-corrector (2 μM of 3-[(2R,4R)-4-({[1-(2,2-difluoro-1,3-benzodioxol-5-yl)cyclopropyl]carbonyl}amino)-7-methoxy-3,4-dihydro-2H-chromen-2-yl]benzoic acid), read-out: EC50 (with co-corrector)
[9] = CSE-HRP, with co-corrector (2 μM), maximum at any tested concentration, normalized to on-plate positive control
[10] = CSE-HRP, without co-corrector, maximum at any tested concentration, normalized to on-plate positive control

T1 sequence (P13569 with tags, fused parts or gaps DEL508-508): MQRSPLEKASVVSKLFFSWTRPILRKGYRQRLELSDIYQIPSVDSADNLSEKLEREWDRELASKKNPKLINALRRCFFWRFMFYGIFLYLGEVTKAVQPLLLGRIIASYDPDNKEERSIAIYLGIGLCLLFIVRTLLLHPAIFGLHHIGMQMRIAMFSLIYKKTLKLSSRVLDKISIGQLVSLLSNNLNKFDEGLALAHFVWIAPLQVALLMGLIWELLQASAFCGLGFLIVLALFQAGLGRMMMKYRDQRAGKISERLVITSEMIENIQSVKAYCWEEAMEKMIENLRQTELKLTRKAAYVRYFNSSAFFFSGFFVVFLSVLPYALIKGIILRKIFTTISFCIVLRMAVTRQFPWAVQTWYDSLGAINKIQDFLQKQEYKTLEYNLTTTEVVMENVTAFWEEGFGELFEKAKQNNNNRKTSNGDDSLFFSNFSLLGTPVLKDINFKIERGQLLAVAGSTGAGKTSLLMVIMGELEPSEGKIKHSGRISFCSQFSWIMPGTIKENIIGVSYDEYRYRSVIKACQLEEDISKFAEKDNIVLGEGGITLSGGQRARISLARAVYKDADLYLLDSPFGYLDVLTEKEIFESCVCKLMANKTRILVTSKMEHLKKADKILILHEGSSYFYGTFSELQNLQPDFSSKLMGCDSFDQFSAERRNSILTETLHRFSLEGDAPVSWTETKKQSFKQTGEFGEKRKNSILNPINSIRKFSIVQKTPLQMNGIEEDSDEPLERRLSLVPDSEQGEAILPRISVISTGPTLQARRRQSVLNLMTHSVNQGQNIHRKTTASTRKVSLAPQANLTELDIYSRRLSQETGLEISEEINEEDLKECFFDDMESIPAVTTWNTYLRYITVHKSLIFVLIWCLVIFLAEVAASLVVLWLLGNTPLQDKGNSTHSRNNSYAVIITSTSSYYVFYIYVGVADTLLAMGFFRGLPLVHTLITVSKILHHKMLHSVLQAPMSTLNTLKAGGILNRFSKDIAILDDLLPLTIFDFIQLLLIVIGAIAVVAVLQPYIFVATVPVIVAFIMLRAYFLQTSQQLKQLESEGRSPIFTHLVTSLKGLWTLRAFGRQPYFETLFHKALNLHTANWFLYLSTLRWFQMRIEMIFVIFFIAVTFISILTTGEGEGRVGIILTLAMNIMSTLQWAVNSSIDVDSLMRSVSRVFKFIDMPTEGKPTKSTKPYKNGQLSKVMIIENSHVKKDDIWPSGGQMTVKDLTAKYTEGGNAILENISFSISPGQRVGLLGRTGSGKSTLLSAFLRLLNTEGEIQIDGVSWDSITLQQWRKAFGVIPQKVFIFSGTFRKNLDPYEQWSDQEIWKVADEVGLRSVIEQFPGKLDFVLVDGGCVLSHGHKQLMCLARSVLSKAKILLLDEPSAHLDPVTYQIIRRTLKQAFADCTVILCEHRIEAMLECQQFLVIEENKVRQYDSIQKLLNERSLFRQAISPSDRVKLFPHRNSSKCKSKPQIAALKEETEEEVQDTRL

| Emax [1] | EC50 [2] | Maximum % activity (with co-corrector) [3] | EC50 [4] | Maximum % activity (without co-corrector) [1] | Maximum % activity (with co-corrector) [5] | Emax [6] | EC50 [7] | EC50 [8] | Maximum % activity (with co-corrector) [9] | Emax [10] | Structure (SMILES) |
| --- | --- | --- | --- | --- | --- | --- | --- | --- | --- | --- | --- |
| < 100% | > 10 µM | ++ (≥150 and <350) | 1 to 10 µM |  |  |  |  |  |  |  | CC(C)(C)[C@@H]1[C@@H](NCc2cc(C(F)(F)F)ccc2OCCCF)[C@@H](c2ccccc2)N(C(=O)C2CCCCC2)[C@H]1C(=O)O (racemic) [III-85] |
|  | 1 to 10 µM | +++ (≥350) | 1 to 10 µM | ++ (≥100 and <200) |  |  |  |  |  |  | COc1ccc(C(C)(C)C)cc1CN[C@H]1[C@H](C(C)(C)C)[C@@H](C(=O)O)N(C(=O)C2Cc3ccccc3CO2)[C@H]1c1cccnc1N(C)C (single isomer, unassigned) [II-481] |
|  | 1 to 10 µM |  | 1 to 10 µM |  | ++ (≥150 and <350) | < 100% |  |  |  |  | COc1ccc2ccccc2c1CN[C@H]1[C@H](C(C)(C)C)[C@@H](C(=O)O)N(C(=O)C2CCCCC2)[C@H]1c1ccccc1 [Example I-188] |
|  |  |  |  |  |  |  | 1 to 10 µM | 1 to 10 µM | +++ (≥350) | 100 to 200% | COc1cc(Cl)ccc1CN[C@H]1[C@H](C(C)(C)C)[C@@H](C(=O)O)N(C(=O)C2CCCCC2)[C@H]1c1cccnc1C [II-96] |
|  |  |  |  |  |  |  | 1 to 10 µM | 1 to 10 µM | +++ (≥350) | 100 to 200% | COc1cccc(Cl)c1CN[C@@H]1[C@@H](C(C)(C)C)[C@H](C(=O)O)N(C(=O)C2CCCCC2)[C@@H]1c1ccccc1 (racemic) [II-10] |
|  |  |  |  |  |  |  | 1 to 10 µM | 1 to 10 µM | +++ (≥350) | 100 to 200% | COc1ccc(C(F)(F)F)cc1CN[C@H]1[C@H](C(C)(C)C)[C@@H](C(=O)O)N(C(=O)[C@@H]2CCCCO2)[C@H]1c1cccc2c1OCC2 [Example I-299] |
|  | 1 to 10 µM |  | 1 to 10 µM |  | +++ (≥350) | 100 to 200% |  |  |  |  | COc1ccc(C(C)(C)C)cc1CN[C@H]1[C@H](C(C)(C)C)[C@@H](C(=O)O)N(C(=O)c2ccc3cccc(F)c3n2)[C@H]1c1ccccc1 [Example I-93] |
|  | 1 to 10 µM |  | 1 to 10 µM |  | +++ (≥350) | 100 to 200% |  |  |  |  | COc1ccc(C2=CCOCC2)cc1CN[C@H]1[C@H](C(C)(C)C)[C@@H](C(=O)O)N(C(=O)C2CCCCC2)[C@H]1c1ccccc1 [Example I-129] |
|  | 1 to 10 µM |  | 1 to 10 µM |  | +++ (≥350) | 100 to 200% |  |  |  |  | COc1ccc(C(C)(C)C)cc1CN[C@H]1[C@H](C(C)(C)C)[C@@H](C(=O)O)N(C(=O)OC(C)C)[C@H]1c1cccnc1OC(F)F [Example I-227] |
| > 200% | 1 to 10 µM | +++ (≥350) | 1 to 10 µM |  |  |  |  |  |  |  | C#CCOC(=O)N1[C@H](C(=O)O)[C@@H](C(C)(C)C)[C@H](NCc2cc(C(C)(C)C)ccc2OC)[C@@H]1c1ccccc1 [II-384] |
|  |  |  |  |  |  |  | < 1 µM | < 1 µM | +++ (≥350) | 100 to 200% | COc1cc(C(C)(C)C)ccc1CN[C@H]1[C@H](C(C)(C)C)[C@@H](C(=O)O)N(C(=O)C2CCCCC2)[C@H]1c1ccccc1OC(F)F [II-124] |
|  | 1 to 10 µM |  | 1 to 10 µM |  | +++ (≥350) | > 200% |  |  |  |  | COc1ccc(C(F)(F)F)cc1CN[C@@H]1[C@@H](C(C)(C)C)[C@H](C(=O)O)N(C(=O)C2CCCCC2)[C@@H]1c1ccccc1 (racemic) [Example I-6] |
|  | < 1 µM |  | < 1 µM |  | +++ (≥350) | > 200% |  |  |  |  | COc1ccc(-c2ccccc2F)cc1CN[C@H]1[C@H](C(C)(C)C)[C@@H](C(=O)O)N(C(=O)C2CCCCC2)[C@H]1c1ccccc1 [Example I-126] |
|  |  |  |  |  |  |  | 1 to 10 µM | 1 to 10 µM | +++ (≥350) | > 200% | COc1ccc(C(C)(C)C)cc1CN[C@H]1[C@H](C(C)(C)C)[C@@H](C(=O)O)N(C(=O)C2CC(C)CCO2)[C@H]1c1ccccc1 (some centres unmarked) [II-174] |
|  | 1 to 10 µM |  | 1 to 10 µM |  | +++ (≥350) | < 100% |  |  |  |  | COc1ccc(C2(C(F)(F)F)CC2)nc1CN[C@H]1[C@H](C(C)(C)C)[C@@H](C(=O)O)N(C(=O)C2CCCCC2)[C@H]1c1ccccc1 [Example I-170] |
| > 200% | 1 to 10 µM | +++ (≥350) | < 1 µM |  |  |  |  |  |  |  | COc1ccc(C23CC(C2)C3)cc1CN[C@H]1[C@H](C(C)(C)C)[C@@H](C(=O)O)N(C(=O)C2CCCCC2)[C@H]1c1cccnc1N(C)C [II-520] |
| > 200% | < 1 µM | +++ (≥350) | < 1 µM |  |  |  |  |  |  |  | COc1ccc(C(C)(C)C)cc1CN[C@H]1[C@H](C(C)(C)C)[C@@H](C(=O)O)N(C(=O)c2cnn(-c3ccc(F)cc3)c2C)[C@H]1c1ccccc1 [II-354] |
| < 100% | < 1 µM |  | < 1 µM |  | ++ (≥150 and <350) |  |  |  |  |  | CC(C)(C)[C@H]1[C@H](NCc2ccc(F)cc2C(F)(F)F)[C@H](c2ccccc2)N(C(=O)C2CCCCC2)[C@@H]1C(=O)O [III-123] |
| > 200% | 1 to 10 µM | +++ (≥350) | 1 to 10 µM |  |  |  |  |  |  |  | COc1ncc(C2CCC2)cc1CN[C@H]1[C@H](C(C)(C)C)[C@@H](C(=O)O)N(C(=O)C2CCCCO2)[C@H]1c1cccnc1N(C)C (some centres unmarked) [II-491] |
| > 200% | 1 to 10 µM |  | < 1 µM |  | +++ (≥350) |  |  |  |  |  | COc1ccc(C(F)(F)F)cc1CN[C@H]1[C@H](C(C)(C)C)[C@@H](C(=O)O)N(C(=O)C2CCC(C)C2)[C@H]1c1ccccc1 (some centres unmarked) [III-198] |
| 100 to 200% | 1 to 10 µM | +++ (≥350) | 1 to 10 µM |  |  |  |  |  |  |  | COc1ncc(C2CCC2)cc1CN[C@H]1[C@H](C(C)(C)C)[C@@H](C(=O)O)N(C(=O)C2C3CCCC32)[C@H]1c1cccnc1N(C)C (some centres unmarked) [II-518] |
| 100 to 200% | 1 to 10 µM | +++ (≥350) | 1 to 10 µM |  |  |  |  |  |  |  | COc1cc(C(F)(F)F)ccc1CN[C@H]1[C@H](C(C)(C)C)[C@@H](C(=O)O)N(C(=O)[C@@H]2CCCO2)[C@H]1c1cccnc1C1CC1 [II-587] |
| > 200% | 1 to 10 µM | +++ (≥350) | < 1 µM |  |  |  |  |  |  |  | COc1ccc(C(C)(C)C)cc1CN[C@H]1[C@H](C(C)(C)C)[C@@H](C(=O)O)N(C(=O)[C@H](C)Oc2ccccc2)[C@H]1c1ccccc1 [II-319] |
|  |  |  |  |  |  |  | 1 to 10 µM | 1 to 10 µM | +++ (≥350) | > 200% | COc1ccc(C(F)(F)F)cc1CN[C@H]1[C@H](C(C)(C)C)[C@@H](C(=O)O)N(C(=O)[C@@H]2CCCCO2)[C@H]1c1ccccc1Br [Example I-290] |
|  | 1 to 10 µM |  | 1 to 10 µM |  | +++ (≥350) | 100 to 200% |  |  |  |  | COc1nc(C(C)(C)C)ccc1CN[C@H]1[C@H](C(C)(C)C)[C@@H](C(=O)O)N(C(=O)[C@H](C)c2ccccc2)[C@H]1c1ccccc1 [Example I-182] |
|  | 1 to 10 µM |  | 1 to 10 µM |  | +++ (≥350) | < 100% |  |  |  |  | COc1ccc(C(F)(F)F)cc1CN[C@@H]1[C@@H](C(C)(C)C)[C@H](C(=O)O)N(C(=O)C(C)Oc2ccccc2)[C@@H]1c1ccccc1 (relative stereo) [Example I-32] |
